Measured values taken from patent publication US20100119483A1, “PEPTIDE VIRAL ENTRY INHIBITORS” (Schering Corporation, priority 2004, published 2010).
Several values for one entry are separate records, joined by “and”; a condition that tells them apart may be missing. Equal values may be shown once.

Test system: HCV pseudoparticles
Experiment: HCV pseudoparticle (HCVpp) entry assay in Huh7 hepatoma cells, luciferase readout
Type: cell-based, hepatitis C virus
Settings: for % of control at ~30 uM: percentage of hepatitis C virus cellular entry at 30 μM peptide vs uninhibited control; for HCVpp % inh: truncated peptides tested at 50 uM in 1% DMSO; for viral entry as a percentage of the uninhibited control: HCV entry, duplicates
Summary of the method: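 Pseudoparticles carrying HCV E1/E2 on an HIV luciferase backbone were produced in 293T cells; peptide was pre-incubated 1 h at 37 °C with Huh7 cells, then virus added and luciferase read after 72 h. Dose-response used 10-point 3-fold titration from 100 ug/ml; envelope-less particles controlled non-specific entry.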

[1] = 0.1 nM of peptide (printed for three rows), two values per peptide and row
[2] = 0.3 nM of peptide, two values per peptide
[3] = 1 nM of peptide, two values per peptide
[4] = 3 nM of peptide, two values per peptide
[5] = 10 nM of peptide, two values per peptide
[6] = 30 nM of peptide, two values per peptide
[7] = 100 nM of peptide, two values per peptide
[8] = 300 nM of peptide, two values per peptide
[9] = 10000 nM of peptide, two values per peptide
[10] = 30000 nM of peptide, two values per peptide
[11] = 0.00003 uM of peptide, two values per peptide and row
[12] = 0.0001 uM of peptide, two values per peptide
[13] = 0.0003 uM of peptide, two values per peptide
[14] = 0.001 uM of peptide, two values per peptide
[15] = 0.003 uM of peptide, two values per peptide
[16] = 0.01 uM of peptide, two values per peptide
[17] = 0.03 uM of peptide, two values per peptide
[18] = 0.1 uM of peptide, two values per peptide
[19] = 0.3 uM of peptide, two values per peptide
[20] = 30 uM of peptide, two values per peptide

## A-I-K-W-E-Y-V-L-L-P-F-L-L (AIKWEYVLLPFLL; HCV peptide) [SEQ ID NO: 124]
[1]
  % control (HCVpp entry), proline scanning: 87 % control and 98 % control and 89 % control and 104 % control and 109 % control and 97 % control
[2]
  % control (HCVpp entry), proline scanning: 74 % control and 88 % control
[3]
  % control (HCVpp entry), proline scanning: 89 % control and 102 % control
[4]
  % control (HCVpp entry), proline scanning: 80 % control and 86 % control
[5]
  % control (HCVpp entry), proline scanning: 67 % control and 102 % control
[6]
  % control (HCVpp entry), proline scanning: 48 % control and 71 % control
[7]
  % control (HCVpp entry), proline scanning: 66 % control and 83 % control
[8]
  % control (HCVpp entry), proline scanning: 85 % control and 68 % control
[9]
  % control (HCVpp entry), proline scanning: 85 % control and 60 % control
[10]
  % control (HCVpp entry), proline scanning: 98 % control and 67 % control

## A-I-K-W-E-Y-V-L-P-L-F-L-L (AIKWEYVLPLFLL; HCV peptide) [SEQ ID NO: 123]
[1]
  % control (HCVpp entry), proline scanning: 78 % control and 81 % control and 104 % control and 86 % control and 117 % control and 94 % control
[2]
  % control (HCVpp entry), proline scanning: 80 % control and 91 % control
[3]
  % control (HCVpp entry), proline scanning: 108 % control and 77 % control
[4]
  % control (HCVpp entry), proline scanning: 92 % control and 78 % control
[5]
  % control (HCVpp entry), proline scanning: 78 % control and 76 % control
[6]
  % control (HCVpp entry), proline scanning: 74 % control and 75 % control
[7]
  % control (HCVpp entry), proline scanning: 72 % control and 61 % control
[8]
  % control (HCVpp entry), proline scanning: 41 % control and 44 % control
[9]
  % control (HCVpp entry), proline scanning: 61 % control and 51 % control
[10]
  % control (HCVpp entry), proline scanning: 31 % control and 49 % control

## A-I-K-W-E-Y-V-P-L-L-F-L-L (AIKWEYVPLLFLL; HCV peptide) [SEQ ID NO: 122]
[1]
  % control (HCVpp entry), proline scanning: 81 % control and 70 % control and 89 % control and 86 % control and 115 % control and 111 % control
[2]
  % control (HCVpp entry), proline scanning: 105 % control and 83 % control
[3]
  % control (HCVpp entry), proline scanning: 73 % control and 100 % control
[4]
  % control (HCVpp entry), proline scanning: 106 % control and 80 % control
[5]
  % control (HCVpp entry), proline scanning: 85 % control and 67 % control
[6]
  % control (HCVpp entry), proline scanning: 70 % control and 113 % control
[7]
  % control (HCVpp entry), proline scanning: 75 % control and 59 % control
[8]
  % control (HCVpp entry), proline scanning: 76 % control and 53 % control
[9]
  % control (HCVpp entry), proline scanning: 54 % control and 43 % control

## A-I-K-W-G-Y-V-L-L-L-F-L-L (AIKWGYVLLLFLL; HCV peptide) [SEQ ID NO: 84, Gly-scan]
[11]
  % control (HCVpp entry), glycine scanning: 118 % control and 84 % control and 87 % control and 110 % control
[12]
  % control (HCVpp entry), glycine scanning: 62 % control and 75 % control
[13]
  % control (HCVpp entry), glycine scanning: 91 % control and 81 % control
[14]
  % control (HCVpp entry), glycine scanning: 74 % control and 73 % control
[15]
  % control (HCVpp entry), glycine scanning: 70 % control
[16]
  % control (HCVpp entry), glycine scanning: 72 % control and 53 % control
[17]
  % control (HCVpp entry), glycine scanning: 62 % control and 52 % control
[18]
  % control (HCVpp entry), glycine scanning: 41 % control and 39 % control
[19]
  % control (HCVpp entry), glycine scanning: 37 % control and 57 % control
[20]
  % control (HCVpp entry), glycine scanning: 22 % control and 38 % control
  % of control at ~30 uM: 19%

## A-I-K-W-P-Y-V-L-L-L-F-L-L (AIKWPYVLLLFLL; HCV peptide) [SEQ ID NO: 119]
[1]
  % control (HCVpp entry), proline scanning: 93 % control and 76 % control and 87 % control and 85 % control and 102 % control and 126 % control
[2]
  % control (HCVpp entry), proline scanning: 78 % control and 77 % control
[3]
  % control (HCVpp entry), proline scanning: 72 % control and 68 % control
[4]
  % control (HCVpp entry), proline scanning: 94 % control and 62 % control
[5]
  % control (HCVpp entry), proline scanning: 54 % control and 48 % control
[7]
  % control (HCVpp entry), proline scanning: 40 % control and 46 % control
[8]
  % control (HCVpp entry), proline scanning: 40 % control and 47 % control
[10]
  % control (HCVpp entry), proline scanning: 28 % control and 17 % control

## A-I-P-W-E-Y-V-L-L-L-F-L-L (AIPWEYVLLLFLL; HCV peptide) [SEQ ID NO: 117]
[2]
  % control (HCVpp entry), proline scanning: 66 % control and 117 % control
[3]
  % control (HCVpp entry), proline scanning: 68 % control and 87 % control
[4]
  % control (HCVpp entry), proline scanning: 89 % control and 66 % control
[5]
  % control (HCVpp entry), proline scanning: 75 % control
[6]
  % control (HCVpp entry), proline scanning: 58 % control and 71 % control
[7]
  % control (HCVpp entry), proline scanning: 38 % control and 54 % control
[8]
  % control (HCVpp entry), proline scanning: 48 % control and 41 % control
[9]
  % control (HCVpp entry), proline scanning: 54 % control and 31 % control

## A-K-K-W-E-Y-V-L-L-L-E-L-L [SEQ ID NO: 102]
[1]
  % control (HCVpp entry), lysine scanning: 104 % control and 102 % control and 89 % control and 108 % control and 98 % control and 106 % control
[2]
  % control (HCVpp entry), lysine scanning: 141 % control and 107 % control
[3]
  % control (HCVpp entry), lysine scanning: 96 % control and 83 % control
[4]
  % control (HCVpp entry), lysine scanning: 70 % control and 66 % control
[5]
  % control (HCVpp entry), lysine scanning: 67 % control and 62 % control
[6]
  % control (HCVpp entry), lysine scanning: 33 % control and 41 % control
[7]
  % control (HCVpp entry), lysine scanning: 16 % control and 25 % control
[8]
  % control (HCVpp entry), lysine scanning: 29 % control and 23 % control
  % of control at ~30 uM: 5%

## F-A-I-K-W-E-Y-V-L-L-L-F-L-L [SEQ ID NO: 105]
  HCVpp % inh: 95%

## G-I-K-W-E-Y-V-L-L-L-F-L-L [SEQ ID NO: 82]
[11]
  % control (HCVpp entry), glycine scanning: 74 % control and 88 % control and 118 % control and 120 % control
[12]
  % control (HCVpp entry), glycine scanning: 62 % control and 61 % control
[13]
  % control (HCVpp entry), glycine scanning: 68 % control and 71 % control
[14]
  % control (HCVpp entry), glycine scanning: 90 % control and 66 % control
[15]
  % control (HCVpp entry), glycine scanning: 71 % control and 80 % control
[16]
  % control (HCVpp entry), glycine scanning: 53 % control and 43 % control
[17]
  % control (HCVpp entry), glycine scanning: 46 % control and 41 % control
[18]
  % control (HCVpp entry), glycine scanning: 33 % control and 27 % control
[19]
  % control (HCVpp entry), glycine scanning: 33 % control and 25 % control
10 uM of peptide, two values per peptide
  % control (HCVpp entry), glycine scanning: 33 % control and 29 % control
[20]
  % control (HCVpp entry), glycine scanning: 18 % control and 29 % control
  % of control at ~30 uM: 22%

## I-K-W-E-Y-V-L-L-L-F-L-L [SEQ ID NO: 107]
  HCVpp % inh: 88%

## K-I-K-W-E-Y-V-L-L-L-F-L-L [SEQ ID NO: 101]
[1]
  % control (HCVpp entry), lysine scanning: 83 % control and 107 % control and 77 % control and 104 % control and 119 % control and 101 % control
[2]
  % control (HCVpp entry), lysine scanning: 96 % control and 103 % control
[3]
  % control (HCVpp entry), lysine scanning: 65 % control and 90 % control
[4]
  % control (HCVpp entry), lysine scanning: 52 % control and 77 % control
[5]
  % control (HCVpp entry), lysine scanning: 54 % control and 57 % control
[6]
  % control (HCVpp entry), lysine scanning: 37 % control and 28 % control
[7]
  % control (HCVpp entry), lysine scanning: 26 % control and 25 % control
[8]
  % control (HCVpp entry), lysine scanning: 26 % control and 29 % control
  % of control at ~30 uM: 4%

## K-W-E-Y-V-L-L-L-F-L-L (KWEYVLLLFLL; HCV peptide) [SEQ ID NO: 108, N-terminal truncation]
  HCVpp % inh: 78%

## LLFLLLVYEWKIA [retro-inverso]
0.1 nM of peptide (three lines)
  viral entry as a percentage of the uninhibited control: 97%
0.3 nM of peptide, 0.0003 µM
  viral entry as a percentage of the uninhibited control: 91% and 81% and 74% and 99% and 126% and 117%
1 nM of peptide, 0.001 µM
  viral entry as a percentage of the uninhibited control: 83% and 72% and 91% and 115% and 106%
3 nM of peptide, 0.003 µM
  viral entry as a percentage of the uninhibited control: 88% and 68% and 78% and 92% and 86% and 98%
10 nM of peptide, 0.01 µM
  viral entry as a percentage of the uninhibited control: 66% and 100% and 76% and 84% and 128% and 104%
30 nM of peptide, 0.03 µM
  viral entry as a percentage of the uninhibited control: 68% and 62% and 76% and 113% and 121% and 110%
30000 nM of peptide, 30 µM
  viral entry as a percentage of the uninhibited control: 107% and 87% and 103% and 125% and 95%
HCVpp entry inhibition, in words
  activity compared to the wild type 13-mer peptide: completely lost activity
